Common to all, as to assay type: cell-based
Assay [1] has as its system CV-1 cells. Nature of the assay: selective killing assay, colony number reduced to 50% of control, normal monkey kidney epithelial cell line CV-1. Particulars: 24 hours treatment; for IC50: Primates. An excerpt: The control received culture media only.
In assay [2] the test system is CX-1 cells. The experiment in a line: selective killing assay, colony number reduced to 50% of control, human colon carcinoma cell line CX-1.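 On all read-outs here: colonies stained with crystal violet and counted, control cells given medium alone, exposure at 37 °C, normal monkey kidney epithelial CV-1 cells as the non-cancer comparator.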 Particulars: for Selectivity (ratio of IC50 for CV-1 and IC50 for CX-1): CV-1/CX-1; for IC50: Homo sapiens, CX-1, Table III.
Procedure: (§1) Human colon carcinoma cell line CX-1 or normal monkey kidney epithelial cell line CV-1 was chosen as representatives of cancer cells and normal cells, respectively. […] CX-1 cells (2,000 cells/well) and CV-1 cells (1,000 cells/well) were plated in 24-well plastic culture plates. […] The control received culture media only. Cells were treated with compounds of General Formulas (I) to (V) at 37° C. for 24 hours. After rinsing with fresh culture medium three times, the cells were further incubated at 37° C. for 7 to 10 days. Cell colonies were fixed and stained with 2% crystal violet in 70% ethanol for 10 minutes and rinsed in water. […] The selectivity is defined as the ratio of IC50 for CV-1 and IC50 for CX-1.
Assay [3] relates to EJ cells. Nature of the assay: colony assay of Example 1 with human bladder carcinoma EJ cell line.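 On all read-outs here: colony formation assay with 24 h compound exposure at 37 °C, then 7–10 days drug-free regrowth, colonies stained with crystal violet, controls given medium alone.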 Particulars: for Selectivity: CV-1/EJ; for IC50: Homo sapiens, EJ, 24 h.
Procedure: as §1
Assay [4] relates to LOX cells. Nature of the assay: colony assay of Example 1 with human melanoma LOX cell line.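 On all read-outs here: colony formation assay with 24 h exposure at 37 °C, then 7 to 10 days of regrowth, crystal violet staining of colonies, control wells given medium alone.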 Particulars: for Selectivity: CV-1/LOX; for LOX(IC50) / IC50: Table V, human melanoma, 24 hours treatment; for IC50: Homo sapiens, LOX, 24 h.
Assay [5] concerns CRL 1420 cells. Nature of the assay: colony assay of Example 1 with human pancreatic carcinoma CRL 1420 cell line.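 On all read-outs here: colony formation assay, cells exposed for 24 h then regrown 7 to 10 days without compound, colonies stained with crystal violet, control given medium alone, normal reference CV-1 monkey kidney epithelial cells.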 The conditions noted are these: for Selectivity: CV-1/CRL-1420; for CRL-1420(IC50) / IC50: Table VII, human pancreatic carcinoma, 24 hours treatment; for IC50: Homo sapiens, 24 h.
Procedure: as §1
Setting [6] is: Table IV, human bladder carcinoma, 24 hours treatment.
The mark [7] stands for this setting: CV-1, Table III, normal monkey kidney epithelial cells, colony count after 7 to 10 days.
Where [8] appears, read: human colon carcinoma, 24 hours treatment, colony count after 7 to 10 days.

Each structure is given as a SMILES string. Bounds are passed on as bounds.

As usually defined, the IC50 is the concentration that inhibits the measured activity by half.

Consider `CCn1c(=Cc2oc3ccccc3[n+]2C)sc(=C2Sc3ccccc3N2C)c1=O` [Compound 12], for which the “CV-1 (IC50)” value in assay [1] (Table III, normal monkey kidney epithelial cells, colony count after 7 to 10 days) is above 20 µg/mL; in assay [1] (Table IV), above 20 µg/mL; in assay [1] (Table V) it was above 30 µg/mL; in assay [1] (Table VII), 20 µg/mL. Moreover, in assay [2], the “Selectivity (ratio of IC50 for CV-1 and IC50 for CX-1)” value is above 667. The “CX-1 (IC50)” value in assay [2] (Table III, human colon carcinoma, 24 hours treatment, colony count after 7 to 10 days) is 0.03 µg/mL. In addition, the Selectivity in assay [3] is recorded as above 400; in assay [4], above 300; in assay [5] it was 222. Further, the “EJ (IC50)” value in assay [3] (setting [6]) amounted to 0.05 µg/mL. Besides, in assay [4], the “LOX(IC50)” value was below 0.1 µg/mL. The “CRL-1420(IC50)” value in assay [5] worked out at 0.09 µg/mL.

`CCn1c(=Cc2scc[n+]2CC)sc(=C2Oc3ccc(-c4ccccc4)cc3N2C)c1=O` [Compound 210]: the IC50 came to 10 µg/mL in assay [1] (CV-1, 24 h, Table IV); 10 µg/mL in assay [1] (CV-1, 24 h, Table VII); 10 µg/mL in assay [1] (setting [7]); 0.1 µg/mL in assay [2] (setting [8]); 0.1 µg/mL in assay [3] (setting [6]); 0.09 µg/mL in assay [5]. Further, the “Selectivity (ratio of IC50 for CV-1 and IC50 for CX-1)” value in assay [2] was 100. The Selectivity in assay [3] was determined as 100; in assay [5], 111.

In the case of `CCn1c(=Cc2sc3c([n+]2CC)-c2ccccc2CC3)sc(=C2Oc3ccc(Cl)cc3N2C)c1=O` [Compound 213], the IC50 was found to be 6 µg/mL in assay [1] (CV-1, 24 h, Table IV); 6 µg/mL in assay [1] (CV-1, 24 h, Table V); 6 µg/mL in assay [1] (CV-1, 24 h, Table VII); 0.03 µg/mL in assay [3] (setting [6]); 0.03 µg/mL in assay [4]; 0.03 µg/mL in assay [5]. For the same compound, the Selectivity in assay [3], in assay [4] and in assay [5] was 200 in each case.

With `CCn1c(=Cc2oc3c4ccccc4ccc3[n+]2CC)sc(=C2Sc3c(ccc4ccccc34)N2C)c1=O` [Compound 238], the IC50 is 20 µg/mL in assay [1] (CV-1, 24 h, Table IV); 20 µg/mL in assay [1] (CV-1, 24 h, Table V); 20 µg/mL in assay [1] (CV-1, 24 h, Table VII); 20 µg/mL in assay [1] (setting [7]); 0.05 µg/mL in assay [2] (setting [8]); 0.01 µg/mL in assay [3] (setting [6]). For the same compound, the IC50 in assay [4] and in assay [5] was 0.02 µg/mL in each case. Also, the “Selectivity (ratio of IC50 for CV-1 and IC50 for CX-1)” value in assay [2] worked out at 400. The values for the Selectivity in assay [3], in assay [4] and in assay [5] were 2000, 1000 and 1000, respectively.

With `CCn1c(=Cc2oc3cc4ccccc4cc3[n+]2CC)sc(=C2Sc3c(ccc4ccccc34)N2C)c1=O` [Compound 237], the IC50 in assay [1] (CV-1, 24 h, Table VII) was 8 µg/mL. In assay [5], this compound displayed a Selectivity of 267 and an IC50 of 0.03 µg/mL.

Take `CCn1c(=Cc2cccc[n+]2CC)sc(=C2Sc3c(ccc4ccccc34)N2C)c1=O` [Compound 239]: the IC50 worked out at 20 µg/mL in assay [1] (CV-1, 24 h, Table IV); 20 µg/mL in assay [1] (CV-1, 24 h, Table V); 20 µg/mL in assay [1] (CV-1, 24 h, Table VII); 20 µg/mL in assay [1] (setting [7]); 0.1 µg/mL in assay [2] (setting [8]); 0.08 µg/mL in assay [3] (setting [6]). Also, the IC50 in assay [4] and in assay [5] was 0.05 µg/mL in each case. Besides, in assay [2], the “Selectivity (ratio of IC50 for CV-1 and IC50 for CX-1)” value stood at 200. For the same compound, the results for the Selectivity in assay [3], in assay [4] and in assay [5] were 250, 400 and 400, respectively.

For `CCn1c(=Cc2ccc3ccccc3[n+]2CC)sc(=C2Sc3ccccc3N2C)c1=O` [Compound 341], the “CV-1 (IC50)” value in assay [1] (Table V) and in assay [1] (Table VII) was 6 µg/mL throughout. In addition, the Selectivity in assay [4] and in assay [5] was 200 throughout. The “LOX(IC50)” value in assay [4] was determined as 0.03 µg/mL. For the same compound, the “CRL-1420(IC50)” value in assay [5] stood at 0.03 µg/mL.

For the compound `CCn1c(=Cc2sc3ccc4ccccc4c3[n+]2CC)sc(=C2Oc3ccc(Cl)cc3N2C)c1=O` [Compound 209], the IC50 in assay [1] (CV-1, 24 h, Table V) is 20 µg/mL; in assay [1] (CV-1, 24 h, Table VII) it was 20 µg/mL; in assay [4], 0.2 µg/mL; in assay [5] it was 0.1 µg/mL. The Selectivity in assay [4] was found to be 100; in assay [5] it was 200.

The values above are taken from patent publication US5360803A, “Composition and method for treating cancer” (Dan Farber Cancer Institute, priority 1992, dated 1994).
